Reference: patent US10577363B2, “Substituted piperidine compounds” (EPIZYME, INC., priority 2014, dated 2020)

Each molecule was assayed against SMYD3 (Homo sapiens (Human), UniProt Q9H7B4) (assay: SMYD3 biochemical assay (SPA, 3H-SAM methylation of MEKK2 protein substrate)). Conditions: read-out: SMYD3 Biochem IC50 (μM)*.
Procedure, shortened: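 Full-length native human SMYD3 (E. coli-expressed, tags removed) preincubated with compounds 30 min at room temperature, then reaction started with 3H-SAM and GST-tagged MEKK2 protein in 25 mM Tris-Cl pH 8.0, 1 mM TCEP, 0.005% BSG, 0.005% Tween 20. Quenched with unlabelled SAM (100 uM final); 3H-MEKK2 counted by SPA.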
With `COC(=O)CCS(=O)(=O)N1CC[C@H](NC(=O)c2cc(C3CC3)on2)C[C@@H]1C` [compound 280, methyl 3-(((2S,4S)-4-(5-cyclopropylisoxazole-3-carboxamido)-2-methylpiperidin-1-yl)sulfonyl)propanoate] the IC50 was 4.85 µM. With `COCCCS(=O)(=O)N1CC[C@H](NC(=O)c2cc(C3CC3)on2)C[C@@H]1C` [compound 281, 5-cyclopropyl-N-((2S,4S)-1-((3-methoxypropyl)sulfonyl)-2-methylpiperidin-4-yl)isoxazole-3-carboxamide] the IC50 was 1.87 µM. With `COC(=O)CCS(=O)(=O)N1CC[C@H](NC(=O)c2cc(C3CC3)on2)C[C@H]1C` [compound 282, methyl 3-(((2R,4S)-4-(5-cyclopropylisoxazole-3-carboxamido)-2-methylpiperidin-1-yl)sulfonyl)propanoate] the IC50 was > 10 µM. For `COCCCS(=O)(=O)N1CC[C@H](NC(=O)c2cc(C3CC3)on2)C[C@H]1C` [compound 284, 5-cyclopropyl-N-((2R,4S)-1-((3-methoxypropyl)sulfonyl)-2-methylpiperidin-4-yl)isoxazole-3-carboxamide], the IC50 was > 10 µM. In the case of `CC(C)OCCS(=O)(=O)N1CC[C@H](NC(=O)c2cc(C3CC3)on2)C[C@H]1C` [compound 285, 5-cyclopropyl-N-((2R,4S)-1-((2-isopropoxyethyl)sulfonyl)-2-methylpiperidin-4-yl)isoxazole-3-carboxamide], the IC50 is reported as > 10 µM. In the case of `C[C@H]1C[C@H](NC(=O)c2cc(C3CC3)on2)CCN1S(=O)(=O)c1ccc(Cl)nc1` [compound 287, N-((2S,4R)-1-((6-chloropyridin-3-yl)sulfonyl)-2-methylpiperidin-4-yl)-5-cyclopropylisoxazole-3-carboxamide], the IC50 is reported as > 10 µM. With `C[C@H]1C[C@H](NC(=O)c2cc(C3CC3)on2)CCN1S(=O)(=O)N1CCCC1` [compound 288, 5-cyclopropyl-N-((2S,4R)-2-methyl-1-(pyrrolidin-1-ylsulfonyl)piperidin-4-yl)isoxazole-3-carboxamide] the IC50 was > 10 µM. In the case of `CNS(=O)(=O)N1CC[C@@H](NC(=O)c2cc(C3CC3)on2)C[C@@H]1C` [compound 289, 5-cyclopropyl-N-((2S,4R)-2-methyl-1-(N-methylsulfamoyl)piperidin-4-yl)isoxazole-3-carboxamide], the IC50 is reported as > 10 µM. `COC(=O)CCS(=O)(=O)N1CC[C@@H](NC(=O)c2cc(C3CC3)on2)C[C@@H]1C` [compound 290, methyl 3-(((2S,4R)-4-(5-cyclopropylisoxazole-3-carboxamido)-2-methylpiperidin-1-yl)sulfonyl)propanoate] was tested, and the IC50 was > 10 µM. For `C[C@H]1C[C@H](NC(=O)c2cc(C3CC3)on2)CCN1S(=O)(=O)CCC(F)(F)F` [compound 292, 5-cyclopropyl-N-((2S,4R)-2-methyl-1-((3,3,3-trifluoropropyl)sulfonyl)piperidin-4-yl)isoxazole-3-carboxamide], the IC50 was > 10 µM. In the case of `CC(C)OCCS(=O)(=O)N1CC[C@@H](NC(=O)c2cc(C3CC3)on2)C[C@H]1C` [compound 296, 5-cyclopropyl-N-((2R,4R)-1-((2-isopropoxyethyl)sulfonyl)-2-methylpiperidin-4-yl)isoxazole-3-carboxamide], the IC50 is reported as 5.97 µM. `CC[C@@H]1CN(C(=O)CCCN)CC[C@@H]1NC(=O)c1cc(C2CC2)on1` [compound 297, N-((3R,4S)-1-(4-aminobutanoyl)-3-ethylpiperidin-4-yl)-5-cyclopropylisoxazole-3-carboxamide] showed an IC50 of 1.8 µM. `CC[C@@H]1CN(C(=O)CCCN)CC[C@H]1NC(=O)c1cc(C2CC2)on1` [compound 298, N-((3R,4R)-1-(4-aminobutanoyl)-3-ethylpiperidin-4-yl)-5-cyclopropylisoxazole-3-carboxamide] showed an IC50 of 6.1 µM. For `CC[C@H]1CN(C(=O)CCCN)CC[C@H]1NC(=O)c1cc(C2CC2)on1` [compound 299, N-((3S,4R)-1-(4-aminobutanoyl)-3-ethylpiperidin-4-yl)-5-cyclopropylisoxazole-3-carboxamide], the IC50 was 0.989 µM. `CC[C@H]1CN(C(=O)CCCN)CC[C@@H]1NC(=O)c1cc(C2CC2)on1` [compound 300, N-((3S,4S)-1-(4-aminobutanoyl)-3-ethylpiperidin-4-yl)-5-cyclopropylisoxazole-3-carboxamide] showed an IC50 of 3.6 µM. With `NCCCC(=O)N1CCC(NC(=O)c2cc(C3CC3)on2)CC12CCCCC2` (centres unmarked) [compound 301, N-(1-(4-aminobutanoyl)-1-azaspiro[5.5]undecan-4-yl)-5-cyclopropylisoxazole-3-carboxamide] the IC50 was 6.47 µM. With `CC[C@@H]1CC(NC(=O)c2cc(C3CC3)on2)C[C@H](CC)N1C(=O)CCCN` (stereo partly drawn) [compound 302, N-((2S,6R)-1-(4-aminobutanoyl)-2,6-diethylpiperidin-4-yl)-5-cyclopropylisoxazole-3-carboxamide] the IC50 was 6.93 µM. Molecule `CC1CN(C(=O)[C@H]2CC[C@H](N)CC2)CC(C)C1NC(=O)c1cc(C2CC2)on1` (some centres unmarked) [compound 303, N-(1-((1r,4r)-4-aminocyclohexane-1-carbonyl)-3,5-dimethylpiperidin-4-yl)-5-cyclopropylisoxazole-3-carboxamide] has an IC50 of 1.78 µM. `N[C@H]1CC[C@H](C(=O)N2CCC(NC(=O)c3cc(C4CC4)on3)C(C(F)(F)F)C2)CC1` (some centres unmarked) [compound 304, N-(1-((1r,4r)-4-aminocyclohexane-1-carbonyl)-3-(trifluoromethyl)piperidin-4-yl)-5-cyclopropylisoxazole-3-carboxamide] gave an IC50 of 2.04 µM. Work on `C[C@H](C(=O)N1CC[C@@H](NC(=O)c2cc(C3CC3)on2)C[C@H]1C)C1CCNCC1` [compound 305, 5-cyclopropyl-N-((2R,4R)-2-methyl-1-((S)-2-(piperidin-4-yl)propanoyl)piperidin-4-yl)isoxazole-3-carboxamide] yielded an IC50 of 1.17 µM. `C[C@@H]1C[C@H](NC(=O)c2cc(C3CC3)on2)CCN1C(=O)[C@H](C)C1CCNCC1` [compound 306, 5-cyclopropyl-N-((2R,4R)-2-methyl-1-((R)-2-(piperidin-4-yl)propanoyl)piperidin-4-yl)isoxazole-3-carboxamide] gave an IC50 of 0.852 µM. `C[C@H](C(=O)N1CC[C@H](NC(=O)c2cc(C3CC3)on2)C[C@H]1C)C1CCNCC1` [compound 307, 5-cyclopropyl-N-((2R,4S)-2-methyl-1-((S)-2-(piperidin-4-yl)propanoyl)piperidin-4-yl)isoxazole-3-carboxamide] was tested, and the IC50 was 0.928 µM. For `C[C@@H]1C[C@@H](NC(=O)c2cc(C3CC3)on2)CCN1C(=O)[C@H](C)C1CCNCC1` [compound 308, 5-cyclopropyl-N-((2R,4S)-2-methyl-1-((R)-2-(piperidin-4-yl)propanoyl)piperidin-4-yl)isoxazole-3-carboxamide], the IC50 was 0.179 µM. `C[C@H]1C[C@H](NC(=O)c2cc(C3CC3)on2)CCN1C(=O)CC(C)(C)CN` [compound 311, N-((2S,4R)-1-(4-amino-3,3-dimethylbutanoyl)-2-methylpiperidin-4-yl)-5-cyclopropylisoxazole-3-carboxamide] showed an IC50 of 1.62 µM. For `C[C@@H]1C[C@H](NC(=O)c2cc(C3CC3)on2)CCN1C(=O)CC(C)(C)CN` [compound 312, N-((2R,4R)-1-(4-amino-3,3-dimethylbutanoyl)-2-methylpiperidin-4-yl)-5-cyclopropylisoxazole-3-carboxamide], the IC50 was 0.416 µM. Molecule `C[C@@H]1C[C@@H](NC(=O)c2cc(C3CC3)on2)CCN1C(=O)CC(CN)c1ccccc1` (stereo partly drawn) [compound 313, N-((2R,4S)-1-(4-amino-3-phenylbutanoyl)-2-methylpiperidin-4-yl)-5-cyclopropylisoxazole-3-carboxamide] has an IC50 of 5.02 µM. `C[C@H]1C[C@@H](NC(=O)c2cc(C3CC3)on2)CCN1S(=O)(=O)c1ccc(Cl)nc1` [compound 318, N-((2S,4S)-1-((6-chloropyridin-3-yl)sulfonyl)-2-methylpiperidin-4-yl)-5-cyclopropylisoxazole-3-carboxamide] was tested, and the IC50 was 1.88 µM. `CCOC(=O)CS(=O)(=O)N1CC[C@H](NC(=O)c2cc(C3CC3)on2)C[C@H]1C` [compound 320, ethyl 2-(((2R,4S)-4-(5-cyclopropylisoxazole-3-carboxamido)-2-methylpiperidin-1-yl)sulfonyl)acetate] was tested, and the IC50 was > 10 µM. Molecule `C[C@@H]1C[C@@H](NC(=O)c2cc(C3CC3)on2)CCN1S(=O)(=O)c1ccccn1` [compound 321, 5-cyclopropyl-N-((2R,4S)-2-methyl-1-(pyridin-2-ylsulfonyl)piperidin-4-yl)isoxazole-3-carboxamide] has an IC50 of 4.47 µM. `CCCS(=O)(=O)N1CC[C@@H](NC(=O)c2cc(C3CC3)on2)C[C@@H]1C` [compound 322, 5-cyclopropyl-N-((2S,4R)-2-methyl-1-(propylsulfonyl)piperidin-4-yl)isoxazole-3-carboxamide] was tested, and the IC50 was > 10 µM. For `CC(C)CS(=O)(=O)N1CC[C@@H](NC(=O)c2cc(C3CC3)on2)C[C@@H]1C` [compound 323, 5-cyclopropyl-N-((2S,4R)-1-(isobutylsulfonyl)-2-methylpiperidin-4-yl)isoxazole-3-carboxamide], the IC50 was > 10 µM. Work on `C[C@H]1C[C@H](NC(=O)c2cc(C3CC3)on2)CCN1S(=O)(=O)N1CCN(C)CC1` [compound 324, 5-cyclopropyl-N-((2S,4R)-2-methyl-1-((4-methylpiperazin-1-yl)sulfonyl)piperidin-4-yl)isoxazole-3-carboxamide] yielded an IC50 of 1.65 µM. For `C[C@H]1C[C@H](NC(=O)c2cc(C3CC3)on2)CCN1S(=O)(=O)Cc1cccnc1` [compound 325, 5-cyclopropyl-N-((2S,4R)-2-methyl-1-((pyridin-3-ylmethyl)sulfonyl)piperidin-4-yl)isoxazole-3-carboxamide], the IC50 was > 10 µM. `C[C@H]1C[C@H](NC(=O)c2cc(C3CC3)on2)CCN1S(=O)(=O)CCc1ccccc1` [compound 326, 5-cyclopropyl-N-((2S,4R)-2-methyl-1-(phenethylsulfonyl)piperidin-4-yl)isoxazole-3-carboxamide] was tested, and the IC50 was > 10 µM. For `COCCCS(=O)(=O)N1CC[C@@H](NC(=O)c2cc(C3CC3)on2)C[C@@H]1C` [compound 327, 5-cyclopropyl-N-((2S,4R)-1-((3-methoxypropyl)sulfonyl)-2-methylpiperidin-4-yl)isoxazole-3-carboxamide], the IC50 was > 10 µM.
